# Source: US12582657B2, “Combination therapy including a KRAS G12C inhibitor and one or more additional pharmaceutically active agents for the treatment of cancers” (Amgen Inc., priority 2018, dated 2026)
# Where two headings read alike, the source gives them in different places.
# Columns and labels:
# [1] = system: ERK1/2 phosphorylation in A549 cells; experiment: Basal ERK1/2 phosphorylation assay (MSD); type: cell-based; conditions: Homo sapiens; A549, lung, KRAS p.G12S homozygous; 2-hour treatment
# Method: (§1) For cellular assays, 2.5E+04 cells were seeded per well in 96-well plates and incubated at 37° C., 5% CO2, o/n. The following day, 3-fold serially-diluted compound or DMSO was added to the cells, and the plates were incubated at 37° C., 5% CO2 for 2 hours. […] Signal intensity corresponded with phospho-ERK1/2 levels and was normalized DMSO control.
# [2] = system: ERK1/2 phosphorylation in NCI-H1373 cells; experiment: Basal ERK1/2 phosphorylation assay (MSD); type: cell-based; conditions: Homo sapiens; NCI-H1373, lung, KRAS p.G12C homozygous; 2-hour treatment
# Method: as §1
# [3] = system: ERK1/2 phosphorylation in KM12 cells; experiment: Basal ERK1/2 phosphorylation assay (MSD); type: cell-based; conditions: Homo sapiens; KM12, colon, KRAS WT TPM3-NTRK fusion; 2-hour treatment; read-out: Basal p-ERK1/2 IC50
# Method: as §1
# [4] = system: ERK1/2 phosphorylation in NCI-H1355 cells; experiment: Basal ERK1/2 phosphorylation assay (MSD); type: cell-based; conditions: Homo sapiens; NCI-H1355, lung, KRAS p.G13C heterozygous; 2-hour treatment
# Method: as §1
# [5] = system: ERK1/2 phosphorylation in SW1573 cells; experiment: Basal ERK1/2 phosphorylation assay (MSD); type: cell-based; conditions: Homo sapiens; SW1573, lung, KRAS p.G12C homozygous; 2-hour treatment
# Method: as §1
# [6] = system: ERK1/2 phosphorylation in NCI-H1792 cells; experiment: Basal ERK1/2 phosphorylation assay (MSD); type: cell-based; conditions: Homo sapiens; NCI-H1792, lung, KRAS p.G12C heterozygous; 2-hour treatment
# Method: as §1
# [7] = system: MAPK, EGFR, AKT, S6, caspase-3 signaling in NCI-H358 and MIA PaCa-2; experiment: Western blots of cellular signaling nodes; type: cell-based, human; conditions: 0.1 μM; both lines
# From the text: This shifted species accumulated with increasing time and dose and was consistent with downstream inhibition of the MAPK pathway (i.e. p-MEK1/2 and p-ERK1/2) in both cell lines (FIGS. 41A and 41B).
# [8] = Plasma and tumor concentrations of AMG 510 (LC-MS/MS); type: in vivo, mouse; conditions: tumor-bearing mice; single oral dose 10 mg/kg
# Method: Tumor tissue homogenates were prepared by adding water to tissue (4:1 mL:g) using tungsten carbide beads in a TissueLyzer (Qiagen). To 20 μL of sample (plasma or tumor tissue homogenate), 100 μL acetonitrile containing IS (200 ng/mL tolbutamide) was added, the sample was vortexed for 10 min, centrifuged at 3500 g for 10 min, and 90 μL of supernatant was collected. To the collected supernatant 100 μL of water (containing 0.1% formic acid) was added, and 5 μL of the resulting solution was injected onto the LC-MS/MS system. Chromatographic separations were achieved using a Phenomenex Kinetex C18 50×2.1 mm, 2.7 μm, maintained at 50° C., using 0.1% formic acid in H2O (mobile phase A) and 0.1% formic acid in acetonitrile (mobile phase B). […] Peak areas were integrated using Analyst® (Sciex).
# NCI-H23 cells = experiment: Cell viability assay (CellTiter-Glo, adherent); type: cell-based; conditions: Homo sapiens, NCI-H23, lung, KRAS p.G12C heterozygous, 72-hour treatment
# Method: (§2) For adherent viability assays, 0.5-1.0E+03 cells were seeded per well in 384-well plates (or 2.5-4.0E+04 cells per well in 96-well plates) and incubated at 37° C., 5% CO2, o/n. The following day, serially-diluted compound or DMSO was added to the cells, and the plates were incubated at 37° C., 5% CO2 for 72 hours. Cell viability was measured using a CellTiter-Glo® Luminescent Cell Viability Assay kit (Promega) according to the manufacturer's protocol. The luminescence signal of treated samples was normalized to DMSO control.
# LS 174T cells = experiment: Cell viability assay (CellTiter-Glo, adherent); type: cell-based; conditions: Homo sapiens, LS174T, colon, KRAS p.G12D heterozygous, 72-hour treatment
# Method: as §2
# SW837 cells = experiment: Cell viability assay (CellTiter-Glo, adherent); type: cell-based; conditions: Homo sapiens, SW837, colon, KRAS p.G12C heterozygous, 72-hour treatment
# Method: as §2
# AsPC-1 cells = experiment: Cell viability assay (CellTiter-Glo, adherent); type: cell-based; conditions: Homo sapiens, ASPC1, AsPC-1, pancreas, KRAS p.G12D homozygous, 72-hour treatment
# Method: as §2
# SW1573 cells = experiment: Cell viability assay (CellTiter-Glo, adherent); type: cell-based; conditions: Homo sapiens, SW1573, lung, KRAS p.G12C homozygous, 72-hour treatment
# Method: as §2
# NCI-H2122 cells = experiment: Cell viability assay (CellTiter-Glo, adherent); type: cell-based; conditions: Homo sapiens, NCI-H2122, lung, KRAS p.G12C homozygous, 72-hour treatment
# Method: as §2
# NCI-H1322 cells = experiment: Cell viability assay (CellTiter-Glo, adherent); type: cell-based; conditions: Homo sapiens, 72 h, read-out: Cell Viability IC50
# Method: as §2
# A-427 cells = experiment: Cell viability assay (CellTiter-Glo, adherent); type: cell-based; conditions: Homo sapiens, A-427, lung, KRAS p.G12D heterozygous, 72-hour treatment
# Method: as §2
# SW1463 cells = experiment: Cell viability assay (CellTiter-Glo, adherent); type: cell-based; conditions: Homo sapiens, SW1463, colon, KRAS p.G12C homozygous, 72-hour treatment
# Method: as §2
# NCI-H358 cells = experiment: Cell viability assay (CellTiter-Glo, adherent); type: cell-based; conditions: Homo sapiens, 72-hour treatment
# Method: as §2
# Calu-1 cells = experiment: Cell viability assay (CellTiter-Glo, adherent); type: cell-based; conditions: Homo sapiens, Calu-1, lung, KRAS p.G12C heterozygous, 72-hour treatment
# Method: as §2
# HCC-827 cells = experiment: Cell viability assay (CellTiter-Glo, adherent); type: cell-based; conditions: Homo sapiens, HCC827, HCC-827, lung, KRAS WT EGFR p.E746_A750del, 72-hour treatment
# Method: as §2
# MIA PaCa-2 cells = experiment: Cell viability assay (CellTiter-Glo, adherent); type: cell-based; conditions: Homo sapiens, 72-hour treatment
# Method: as §2
# NCI-H1373 cells = experiment: Cell viability assay (CellTiter-Glo, adherent); type: cell-based; conditions: Homo sapiens, NCI-H1373, lung, KRAS p.G12C homozygous, 72-hour treatment
# Method: as §2
structure (smiles),measurement,setting,value
"C=CC(=O)N1CCN(c2nc(=O)n(-c3c(C)ccnc3C(C)C)c3nc(-c4c(O)cccc4F)c(F)cc23)[C@@H](C)C1 (atropisomer, axis not shown) [AMG 510, 6-fluoro-7-(2-fluoro-6-hydroxyphenyl)-1-(4-methyl-2-(2-propanyl)-3-pyridinyl)-4-((2S)-2-methyl-4-(2-propenoyl)-1-piperazinyl)pyrido[2,3-d]pyrimidin-2(1H)-one]",IC50,[1],> 10 µM
same,IC50,[2],0.01 ± 0.0001 µM
same,IC50,[3],> 10 µM
same,IC50,[4],> 10 µM
same,IC50,[5],0.027 ± 0.001 µM
same,IC50,[6],0.045 ± 0.023 µM
same,duration of effects on MAPK and EGFR,[7],> 24 h
same,onset of effects on MAPK and EGFR,[7],< 2 h
same,time at which p-S6 and caspase-cleavage effects emerged,[7],8 to 16 h
same,time of peak plasma and tumor exposure,[8],0.5 h
same,IC50,NCI-H23 cells,0.006 ± 0.001 µM
same,IC50,LS 174T cells,> 7.5 µM
same,IC50,SW837 cells,0.009 ± 0.006 µM
same,IC50,AsPC-1 cells,> 7.5 µM
same,IC50,SW1573 cells,> 7.5 µM
same,IC50,NCI-H2122 cells,0.032 ± 0.005 µM
same,IC50,NCI-H1322 cells,> 7.5 µM
same,IC50,A-427 cells,> 7.5 µM
same,IC50,SW1463 cells,0.015 ± 0.007 µM
same,IC50,"NCI-H358 cells; first of two lines (FIG. 40G: NCI-H358), read-out: cellular viability IC50",~0.006 µM
same,IC50,"NCI-H358 cells; NCI-H358, lung, KRAS p.G12C heterozygous, adherent, read-out: Cell Viability IC50",0.004 ± 0.001 µM
same,IC50,Calu-1 cells,0.004 ± 0.001 µM
same,IC50,HCC-827 cells,> 7.5 µM
same,IC50,"MIA PaCa-2 cells; second of two lines (FIG. 40G: MIA PaCa-2), read-out: cellular viability IC50",~0.009 µM
same,IC50,"MIA PaCa-2 cells; MIA PaCa-2, pancreas, KRAS p.G12C homozygous, adherent, read-out: Cell Viability IC50",0.005 ± 0.001 µM
same,IC50,NCI-H1373 cells,0.02 ± 0.006 µM
